In patent US10519138B2, “Modulators of SOCE, compositions, and uses thereof” (Università degli Studi del Piemonte Orientale “Amedeo …, priority 2016, dated 2019):

tested on: Store Operated Calcium Entry (SOCE) in BV-2 cells; experiment: Fluo-4 fluorimetric assay of tBHQ-induced store operated calcium entry in BV-2 cells; type: cell-based, mouse; conditions: Mus musculus, 10 μM, SOCE inhibition based on tBHQ-induced calcium influx
Experimental: (A) BV-2 cells were plated in poly-d-lysine coated 24-well plate and incubated overnight. After 24 hours, cells were loaded with 2 μM Fluo-4 and placed in an extracellular solution containing 0 mM Ca^2+. Stores were depleted with 50 μM tBHQ and calcium influx was stimulated by the addition of 2 mM Ca^2+ alone (Ctrl), or in conbination with: compound with no activity (NM-3A), and compounds that positively (4-(1-(4-(3,5-bis(trifluoromethyl)-1H-pyrazol-1-yl)phenyl)-1H-1,2,3-triazol-4-yl)benzoic acid) and negatively (3-(1-(4-(4-(ethoxycarbonyl)-5-(trifluoromethyl)-1H-pyrazol-1-yl)phenyl)-1H-1,2,3-triazol-4-yl)benzoic acid) regulate SOCE. Calcium responses are expressed as changes in fluorescence intensity before and after the addition of selected modulators. (B) BV-2 cells were assayed for a calcium response to different concentrations of 3-(1-(4-(4-(ethoxycarbonyl)-5-(trifluoromethyl)-1H-pyrazol-1-yl)phenyl)-1H-1,2,3-triazol-4-yl)benzoic acid and 4-(1-(4-(3,5-bis(trifluoromethyl)-1H-pyrazol-1-yl)phenyl)-1H-1,2,3-triazol-4-yl)benzoic acid (0.1-0.3-1-3-10-30-100 μM) using Fluo-4 fluorimetric assay. Concentration-response curves represent the AUC % of both compounds as compared to positive control.
Immortalized primary mouse microglial BV-2 cells were obtained from ATCC (ATCC® CRL-2540™, Rockville, Md., USA) and were cultured in Dulbecco's Modified Eagle's Medium (DMEM; Sigma-Aldrich, Italy), supplemented with 10% heat-inactivated FBS (Gibco, Italy), 1-glutamine 50 mg/mL (Sigma-Aldrich, Italy), penicillin 10 U/mL and streptomycin […] (Sigma-Aldrich, Italy) at 37° C., under a 5% CO2 humidified atmosphere. For experiments, the cells were plated 2×10^4 per ml in 24 well plates) or onto glass coverslips at concentrations of 4×10^4 per mL (24 mm diame-ter coverslips in 6 well plates).
BV-2 cells were loaded with 5 μM Fluo-4 AM in presence of 0.02% of Pluronic-127 (both from Life Technologies, Italy) and 10 μM sulfinpyrazone in Krebs-Ringer buffer (KRB, 135 mM NaCl, 5 mM KCl, 0.4 mM KH2PO4, 1 mM MgSO4, 5.5 mM glucose, 20 mM HEPES, pH 7.4) containing 2 mM CaCl2 (30 min, room temperature). Subsequently, cells were washed and incubated with KRB for other 30 min to allow de-esterification of Fluo-4 AM. Experiments were carried out prior to and during exposure of the cells to the Ca^2+-free solution. In the absence of Ca^2+, the intracellular Ca^2+ stores were depleted by 2,5-t-butylhydroquinone (tBHQ, 50 μM; Sigma-Aldrich, Italy), a SERCA poison, and then calcium 2 mM was re-added to the extracellular solution. Fluorescence is then monitored sequentially for a second in each well for 600 seconds with excitation at 494 nm and an emission wavelength at 516 nm on the V3 Victor plate-reader (Perkin Elmer), generating time-curves for each well. Data were analysed using Microsoft Excel and GraphPad Prism.
The percentage of SOCE inhibition for each compound was determined based on value of tBHQ-induced calcium influx into BV-2 cells (Table 2).

First: FC(F)(F)c1cc(C(F)(F)F)n(-c2ccc(-n3cc(-c4ccccc4)nn3)cc2)n1 [1-(4-(3,5-bis(trifluoromethyl)-1H-pyrazol-1-yl)phenyl)-4-phenyl-1H-1,2,3-triazole]
Second: Oc1cccc(-c2cn(-c3ccc(-n4nc(C(F)(F)F)cc4C(F)(F)F)cc3)nn2)c1 [3-(1-(4-(3,5-bis(trifluoromethyl)-1H-pyrazol-1-yl)phenyl)-1H-1,2,3-triazol-4-yl)phenol]
The inhibition at 10 µM of the first is lower: 0.84% for the first, 4.06% for the second.

Compared with `CCCC(C)OC(=O)c1cnn(-c2ccc(-n3cc(-c4cccc(C(=O)O)c4)nn3)cc2)c1C(F)(F)F` (stereo not shown) [3-(1-(4-(4-((pentan-2-yloxy)carbonyl)-5-(trifluoromethyl)-1H-pyrazol-1-yl)phenyl)-1H-1,2,3-triazol-4-yl)benzoic acid], `CCOC(=O)c1cnn(-c2ccc(-n3cc(-c4cccc(C(N)=O)c4)nn3)cc2)c1C(F)(F)F` [ethyl 1-(4-(4-(3-carbamoylphenyl)-1H-1,2,3-triazol-1-yl)phenyl)-5-(trifluoromethyl)-1H-pyrazole-4-carboxylate] is lower in inhibition at 10 µM: 91.9% for the first, 2.27% for the second.

Going from `O=C(O)CCCc1cn(-c2ccc(-n3nc(C(F)(F)F)cc3C(F)(F)F)cc2)nn1` [4-(1-(4-(3,5-bis(trifluoromethyl)-1H-pyrazol-1-yl)phenyl)-1H-1,2,3-triazol-4-yl)butanoic acid] to `O=C(O)CCCn1cc(-c2ccc(-n3nc(C(F)(F)F)cc3C(F)(F)F)cc2)nn1` [4-(4-(4-(3,5-bis(trifluoromethyl)-1H-pyrazol-1-yl)phenyl)-1H-1,2,3-triazol-1-yl)butanoic acid], the inhibition at 10 µM falls from 19.9% to 18.3%.

First: COc1ccc(-n2cc(-c3ccc(-n4nc(C(F)(F)F)cc4C(F)(F)F)cc3)nn2)cc1OC [4-(4-(3,5-bis(trifluoromethyl)-1H-pyrazol-1-yl)phenyl)-1-(3,4-dimethoxyphenyl)-1H-1,2,3-triazole]
Second: COc1ccc(-n2cc(-c3ccc(-n4nc(C(F)(F)F)cc4C(F)(F)F)cc3)nn2)cc1 [4-(4-(3,5-bis(trifluoromethyl)-1H-pyrazol-1-yl)phenyl)-1-(4-methoxyphenyl)-1H-1,2,3-triazole]
The inhibition at 10 µM of the first is lower: 5.7% for the first, 21.3% for the second.

Going from `CCOC(=O)c1cnn(-c2ccc(-c3cn(-c4ccc(C(=O)O)cc4)nn3)cc2)c1C(F)(F)F` [4-(4-(4-(4-(ethoxycarbonyl)-5-(trifluoromethyl)-1H-pyrazol-1-yl)phenyl)-1H-1,2,3-triazol-1-yl)benzoic acid] to `CCOC(=O)c1cnn(-c2ccc(-n3cc(-c4ccc(N)cc4)nn3)cc2)c1C(F)(F)F` [ethyl 1-(4-(4-(4-aminophenyl)-1H-1,2,3-triazol-1-yl)phenyl)-5-(trifluoromethyl)-1H-pyrazole-4-carboxylate], the inhibition at 10 µM falls from 19.8% to 8.31%.

Going from `CCOC(=O)c1cnn(-c2ccc(-c3cn(-c4ccc(OC)c(OC)c4)nn3)cc2)c1C(F)(F)F` [ethyl 1-(4-(1-(3,4-dimethoxyphenyl)-1H-1,2,3-triazol-4-yl)phenyl)-5-(trifluoromethyl)-1H-pyrazole-4-carboxylate] to `CCOC(=O)c1cnn(-c2ccc(-n3cc(-c4ccc(OC)c(OC)c4)nn3)cc2)c1C(F)(F)F` [ethyl 1-(4-(4-(3,4-dimethoxyphenyl)-1H-1,2,3-triazol-1-yl)phenyl)-5-(trifluoromethyl)-1H-pyrazole-4-carboxylate], the inhibition at 10 µM rises from 12.8% to 17.2%.

Compared with `CCOC(=O)c1cnn(-c2ccc(-c3cn(-c4cccc(N)c4)nn3)cc2)c1C(F)(F)F` [ethyl 1-(4-(1-(3-aminophenyl)-1H-1,2,3-triazol-4-yl)phenyl)-5-(trifluoromethyl)-1H-pyrazole-4-carboxylate], `CCOC(=O)c1cnn(-c2ccc(-n3cc(-c4cccc(N)c4)nn3)cc2)c1C(F)(F)F` [ethyl 1-(4-(4-(3-aminophenyl)-1H-1,2,3-triazol-1-yl)phenyl)-5-(trifluoromethyl)-1H-pyrazole-4-carboxylate] is higher in inhibition at 10 µM: 23% for the first, 24.8% for the second.

First: CCOC(=O)c1cnn(-c2ccc(-c3cn(-c4ccc(OC)cc4)nn3)cc2)c1C(F)(F)F [ethyl 1-(4-(1-(4-methoxyphenyl)-1H-1,2,3-triazol-4-yl)phenyl)-5-(trifluoromethyl)-1H-pyrazole-4-carboxylate]
Second: CCOC(=O)c1cnn(-c2ccc(-n3cc(-c4ccc(OC)cc4)nn3)cc2)c1C(F)(F)F [ethyl 1-(4-(4-(4-methoxyphenyl)-1H-1,2,3-triazol-1-yl)phenyl)-5-(trifluoromethyl)-1H-pyrazole-4-carboxylate]
The inhibition at 10 µM of the first is higher: 16.9% for the first, 4.77% for the second.

Going from `CCOC(=O)c1cnn(-c2ccc(-c3cn(-c4cccnc4)nn3)cc2)c1C(F)(F)F` [ethyl 1-(4-(1-(pyridin-3-yl)-1H-1,2,3-triazol-4-yl)phenyl)-5-(trifluoromethyl)-1H-pyrazole-4-carboxylate] to `CCOC(=O)c1cnn(-c2ccc(-c3cn(-c4ccncc4)nn3)cc2)c1C(F)(F)F` [ethyl 1-(4-(1-(pyridin-4-yl)-1H-1,2,3-triazol-4-yl)phenyl)-5-(trifluoromethyl)-1H-pyrazole-4-carboxylate], the inhibition at 10 µM falls from 37.4% to 20%.

Going from `CCOC(=O)c1cnn(-c2ccc(-n3cc(-c4ccccc4NC(C)=O)nn3)cc2)c1C(F)(F)F` [ethyl 1-(4-(4-(2-acetamidophenyl)-1H-1,2,3-triazol-1-yl)phenyl)-5-(trifluoromethyl)-1H-pyrazole-4-carboxylate] to `CCOC(=O)c1cnn(-c2ccc(-n3cc(-c4ccccc4)nn3)cc2)c1C(F)(F)F` [ethyl 1-(4-(4-phenyl-1H-1,2,3-triazol-1-yl)phenyl)-5-(trifluoromethyl)-1H-pyrazole-4-carboxylate], the inhibition at 10 µM falls from 28% to 14.3%.

Going from `CCOC(=O)c1cnn(-c2ccc(-n3cc(-c4cccc(C(=O)OC)c4)nn3)cc2)c1C(F)(F)F` [ethyl 1-(4-(4-(3-(methoxycarbonyl)phenyl)-1H-1,2,3-triazol-1-yl)phenyl)-5-(trifluoromethyl)-1H-pyrazole-4-carboxylate] to `CCOC(=O)c1cnn(-c2ccc(-n3cc(-c4cccc(O)c4)nn3)cc2)c1C(F)(F)F` [ethyl 1-(4-(4-(3-hydroxyphenyl)-1H-1,2,3-triazol-1-yl)phenyl)-5-(trifluoromethyl)-1H-pyrazole-4-carboxylate], the inhibition at 10 µM falls from 21.8% to 3.53%.
